# Calls of active or inactive are those of the source.
# Columns and labels:
# [1] = molecular target: T1, Calpain-2 catalytic subunit (Sus scrofa, UniProt P43367); assay: pig calpain II inhibitor potency, dose response, biochemical, fluorogenic peptide substrate (AID 1420); type: functional
# T1 sequence (P43367 whole entry): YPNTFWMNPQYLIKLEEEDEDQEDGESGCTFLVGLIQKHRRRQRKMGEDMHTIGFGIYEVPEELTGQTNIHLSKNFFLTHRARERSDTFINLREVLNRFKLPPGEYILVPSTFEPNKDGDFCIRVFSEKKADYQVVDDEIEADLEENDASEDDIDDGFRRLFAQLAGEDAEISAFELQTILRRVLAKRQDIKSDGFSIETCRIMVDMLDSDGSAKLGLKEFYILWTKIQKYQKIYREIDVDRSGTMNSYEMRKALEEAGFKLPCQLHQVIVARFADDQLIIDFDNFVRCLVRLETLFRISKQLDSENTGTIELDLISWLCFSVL
# [2] = molecular target: T2, Ubiquitin-conjugating enzyme E2 N (Homo sapiens, UniProt P61088); type: functional;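 note: Dose-response confirmation in a TR-FRET assay detecting UBC13-driven polyubiquitin chain formation, inhibition measured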
# T2 sequence (P61088 whole entry): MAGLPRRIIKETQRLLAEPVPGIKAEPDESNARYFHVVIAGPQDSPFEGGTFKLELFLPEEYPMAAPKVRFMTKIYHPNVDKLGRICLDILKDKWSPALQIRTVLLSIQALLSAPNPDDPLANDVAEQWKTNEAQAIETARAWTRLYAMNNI
# [3] = Luminescence Cell-Based Dose Retest to Confirm Inhibitors of Cancer Stem Cells. [Related pubchem assays (depositor defined):AID2717, AID2721]; type: functional; conditions: Homo sapiens
# [4] = molecular target: Luciferin 4-monooxygenase (Photinus pyralis, UniProt P08659); assay: firefly luciferase enzyme inhibitors, dose response, biochemical, luminescence (AID 1891)
# Sequence of Luciferin 4-monooxygenase (P08659 whole entry): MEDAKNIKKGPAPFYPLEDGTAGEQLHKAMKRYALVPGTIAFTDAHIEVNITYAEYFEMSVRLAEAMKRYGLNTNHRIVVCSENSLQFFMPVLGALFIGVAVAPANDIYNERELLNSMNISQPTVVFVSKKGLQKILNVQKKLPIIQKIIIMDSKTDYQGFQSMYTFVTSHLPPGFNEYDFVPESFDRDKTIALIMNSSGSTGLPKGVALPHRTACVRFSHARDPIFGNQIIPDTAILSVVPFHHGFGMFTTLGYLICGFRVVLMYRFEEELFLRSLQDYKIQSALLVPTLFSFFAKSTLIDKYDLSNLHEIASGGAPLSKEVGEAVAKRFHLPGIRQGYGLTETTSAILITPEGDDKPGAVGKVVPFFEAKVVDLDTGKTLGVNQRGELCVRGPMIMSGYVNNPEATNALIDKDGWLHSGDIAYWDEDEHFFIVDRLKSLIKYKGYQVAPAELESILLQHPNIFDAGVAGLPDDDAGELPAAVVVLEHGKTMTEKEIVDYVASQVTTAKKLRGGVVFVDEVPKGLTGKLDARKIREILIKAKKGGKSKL
# [5] = Luminescence Cell-Based Dose Confirmation HTS to Identify Inhibitors of Platelet Dense Granule Release. [Related pubchem assays: 1663 (Primary HTS), 1678 (Summary of Project)]; type: functional
# [6] = inhibitors of SNCA 5'UTR-driven reporter translation, confirmation, H4 neuroglioma cells, luminescence (AID 1988); type: functional, cell-based
# [7] = Luminescence Cell-Based Dose Response HTS to Identify Inhibitors of 5'UTR Stem-Loop Driven Prion Protein mRNA Translation in H4 Neuroglioblastoma Cells. [Related pubchem assays: 1827 (Project Summary), 1813 (Primary HTS)]; type: functional
# [8] = inhibitors of firefly luciferase expression or activity, dose response, H4 neuroglioma cells, luminescence (AID 1990); type: functional, cell-based
# [9] = molecular target: Induced myeloid leukemia cell differentiation protein Mcl-1 (Homo sapiens, UniProt Q07820); type: functional
# Sequence of Induced myeloid leukemia cell differentiation protein Mcl-1 (Q07820 whole entry): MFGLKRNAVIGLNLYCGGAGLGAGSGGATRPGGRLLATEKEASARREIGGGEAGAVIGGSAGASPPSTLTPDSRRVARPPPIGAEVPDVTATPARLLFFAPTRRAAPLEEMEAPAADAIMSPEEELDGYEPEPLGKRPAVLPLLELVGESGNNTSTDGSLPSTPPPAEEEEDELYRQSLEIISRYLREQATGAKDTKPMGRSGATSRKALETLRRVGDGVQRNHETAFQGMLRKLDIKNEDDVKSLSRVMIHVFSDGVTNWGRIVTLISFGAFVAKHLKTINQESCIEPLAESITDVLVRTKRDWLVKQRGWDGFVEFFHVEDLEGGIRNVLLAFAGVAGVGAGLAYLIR
# [10] = molecular target: T3, Rac GTPase-activating protein 1 (Homo sapiens, UniProt Q9H0H5); assay: MgcRacGAP GTPase-activating activity inhibitors, confirmation, biochemical, ADP Hunter fluorescence, primary and confirmatory (AID 624330); type: functional
# T3 sequence (Q9H0H5 whole entry): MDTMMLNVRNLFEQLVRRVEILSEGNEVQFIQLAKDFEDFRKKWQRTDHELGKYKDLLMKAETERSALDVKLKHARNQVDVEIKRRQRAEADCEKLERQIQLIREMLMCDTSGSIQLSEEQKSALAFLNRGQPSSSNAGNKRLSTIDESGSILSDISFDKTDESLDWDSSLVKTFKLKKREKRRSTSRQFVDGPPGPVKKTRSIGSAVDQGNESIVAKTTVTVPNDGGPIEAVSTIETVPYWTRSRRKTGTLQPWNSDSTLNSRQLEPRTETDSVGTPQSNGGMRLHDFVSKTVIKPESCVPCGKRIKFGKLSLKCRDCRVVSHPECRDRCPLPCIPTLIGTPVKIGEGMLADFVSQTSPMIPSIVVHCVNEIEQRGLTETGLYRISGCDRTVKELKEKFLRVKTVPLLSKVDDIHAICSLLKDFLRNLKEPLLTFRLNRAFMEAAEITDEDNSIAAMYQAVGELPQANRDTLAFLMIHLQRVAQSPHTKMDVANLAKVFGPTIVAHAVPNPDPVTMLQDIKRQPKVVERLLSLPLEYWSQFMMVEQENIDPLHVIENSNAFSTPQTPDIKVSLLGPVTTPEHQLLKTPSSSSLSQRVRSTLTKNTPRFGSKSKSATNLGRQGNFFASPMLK
# [11] = molecular target: Cytochrome P450 2C19 (Homo sapiens, UniProt P33261); assay: Cytochrome panel assay with activity outcomes. Panel member name: p450-cyp2c19 Compounds with AC50 equal or less than 10 uM are considered active; type: functional; conditions: read-out: AC50
# Sequence of Cytochrome P450 2C19 (P33261 whole entry): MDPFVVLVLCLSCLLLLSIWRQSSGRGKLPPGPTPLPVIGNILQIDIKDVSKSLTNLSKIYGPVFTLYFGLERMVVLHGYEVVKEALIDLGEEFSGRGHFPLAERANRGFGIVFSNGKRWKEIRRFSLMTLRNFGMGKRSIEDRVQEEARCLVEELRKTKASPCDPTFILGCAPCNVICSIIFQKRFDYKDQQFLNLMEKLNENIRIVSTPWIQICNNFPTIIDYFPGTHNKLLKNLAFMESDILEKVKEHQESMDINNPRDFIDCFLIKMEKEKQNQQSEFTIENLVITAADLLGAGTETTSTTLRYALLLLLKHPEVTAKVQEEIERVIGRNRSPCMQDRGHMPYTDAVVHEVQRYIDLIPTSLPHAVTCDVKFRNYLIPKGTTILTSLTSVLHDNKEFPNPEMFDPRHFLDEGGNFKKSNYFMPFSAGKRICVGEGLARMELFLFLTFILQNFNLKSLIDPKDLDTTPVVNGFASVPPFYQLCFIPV
# [12] = tested on: H9c2; assay: cells; type: functional, cell-based; conditions: Rattus norvegicus, H9c2, Myocardium;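 note: confirmatory concentration-response retest of ultra-high-throughput screening hits for modulation of myocardial damage; cell death induced by hydrogen peroxide oxidative stress; compound pretreatment for 60 min then peroxide exposure for 2 h; potency is for protecting the cells against peroxide damage rather than for killing them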
# [13] = molecular target: T4, Heat shock factor protein 1 (Mus musculus, UniProt P38532); assay: HSF1 potentiators in luciferase reporter cells, confirmation, cell-based, NIH3T3, luminescence, dose retest (AID 435004); type: functional;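 note: stress induced by proteasome inhibitor MG132 added 30 min after compound; luciferase reporter driven by HSF1 response element in NIH3T3 cells; actives raise luminescence as potentiators of the MG132 stress response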
# T4 sequence (P38532 whole entry): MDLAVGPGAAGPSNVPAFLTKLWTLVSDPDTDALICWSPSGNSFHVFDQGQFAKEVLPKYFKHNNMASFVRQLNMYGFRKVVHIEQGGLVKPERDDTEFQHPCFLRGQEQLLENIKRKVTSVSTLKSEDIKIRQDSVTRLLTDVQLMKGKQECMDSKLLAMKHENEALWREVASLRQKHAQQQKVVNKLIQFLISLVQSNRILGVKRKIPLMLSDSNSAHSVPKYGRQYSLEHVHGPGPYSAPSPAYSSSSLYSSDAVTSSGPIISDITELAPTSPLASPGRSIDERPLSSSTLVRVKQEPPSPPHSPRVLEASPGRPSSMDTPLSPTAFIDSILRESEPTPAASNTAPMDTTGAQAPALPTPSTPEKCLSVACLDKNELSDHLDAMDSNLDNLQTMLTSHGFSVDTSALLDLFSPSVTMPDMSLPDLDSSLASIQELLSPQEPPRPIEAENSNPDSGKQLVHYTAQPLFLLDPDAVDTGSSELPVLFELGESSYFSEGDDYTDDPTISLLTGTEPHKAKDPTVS
# [14] = molecular target: T5, Polyadenylate-binding protein 1 (Homo sapiens, UniProt P11940); assay: PABP1 MLLE–PAM2 interaction inhibitors, dose response, miRNA deadenylation inhibitor project, biochemical, fluorescence polarization, Cy5-PAM2 peptide, secondary (AID 602260); type: functional; conditions: read-out: IC50_Mean
# T5 sequence (P11940 whole entry): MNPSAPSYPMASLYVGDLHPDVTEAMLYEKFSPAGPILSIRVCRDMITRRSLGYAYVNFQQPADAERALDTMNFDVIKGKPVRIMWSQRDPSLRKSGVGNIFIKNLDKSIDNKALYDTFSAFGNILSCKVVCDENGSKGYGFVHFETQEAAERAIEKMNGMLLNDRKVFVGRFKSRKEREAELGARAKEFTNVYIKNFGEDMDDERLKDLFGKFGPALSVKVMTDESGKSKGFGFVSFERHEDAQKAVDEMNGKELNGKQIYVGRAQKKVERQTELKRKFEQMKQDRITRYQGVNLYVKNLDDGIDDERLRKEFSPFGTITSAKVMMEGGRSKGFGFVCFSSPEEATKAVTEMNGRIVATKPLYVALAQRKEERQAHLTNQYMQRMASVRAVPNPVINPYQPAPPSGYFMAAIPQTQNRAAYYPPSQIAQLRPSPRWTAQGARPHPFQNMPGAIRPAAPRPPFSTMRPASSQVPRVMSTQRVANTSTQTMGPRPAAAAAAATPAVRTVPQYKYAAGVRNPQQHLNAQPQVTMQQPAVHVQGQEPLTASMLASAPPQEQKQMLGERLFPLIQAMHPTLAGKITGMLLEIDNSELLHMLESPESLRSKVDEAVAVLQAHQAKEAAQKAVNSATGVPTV
# [15] = molecular target: T5, Polyadenylate-binding protein 1; assay: PABP1 MLLE–PAM2 binding inhibitor potency, dose response, biochemical, fluorescence polarization, FITC-PAM2 peptide (AID 602259); type: functional; conditions: read-out: IC50_Mean
# [16] = tested on: P388/ADR; assay: cells; type: functional; conditions: Mus musculus
# [17] = tested on: P388; assay: cells; type: functional; conditions: Mus musculus
# [18] = tested on: SN12K1; assay: cells; type: functional; conditions: Homo sapiens
# [19] = NIH-3T3 fibroblast cytotoxicity, dose response, cytotoxicity control, cell-based, fluorescence, Alamar Blue, secondary assay (AID 2327); type: functional;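 note: NIH-3T3 mouse fibroblasts cultured with fluconazole at 8 µg/mL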
# [20] = C. albicans growth with fluconazole, confirmation, fluorescence, retest (AID 2467); type: functional, cell-based
smiles,measurement,setting,value
Cc1ccc(C(=O)NC(=S)NCc2cccnc2)c(C)c1,IC50,[1],> 50 µM (not active)
O=C(c1ccccc1)c1cn(CC(=O)N2CCCc3ccccc32)c2ccccc12,IC50,[1],< 0.4 µM (not active)
Cc1ccc(N2C(=O)N(CC(=O)Nc3cc(C)cc(C)c3)C(=O)C2C)cc1 (centres undefined),IC50,[1],> 50 µM (not active)
CCOC(=O)CSc1nc2ccccc2c(=O)n1NC(=O)c1ccccc1,IC50,[2],> 20 µM (inactive)
CC(C)(C)C1CCC(C(=O)OCC(=O)N2CCN(C(=O)c3ccco3)CC2)CC1 (centres undefined),IC50,[1],29.8 µM (not active)
CCOc1ccc(NC(=O)CCCOc2cc(=O)n(C)c3ccccc23)cc1,IC50,[2],> 20 µM (inactive)
CCCCCc1cc(=O)oc2c(C(CCN3CCCCC3)c3cc(OC)c(OC)c(OC)c3)c(OC)cc(OC)c12 (centres undefined),IC50,[2],> 20 µM (inactive)
same,AC50,[3],6.58 µM (active)
CCOC(=O)Cc1sc(N)nc1C,EC50,[4],> 112 µM (not active)
same,EC50,[5],> 112 µM (not active)
c1ccc2nc(-c3ccc(N4CCOCC4)cc3)ccc2c1,EC50,[6],0.413 µM (inconclusive)
same,EC50,[4],0.793 µM (active)
same,EC50,[7],0.757 µM (active)
same,EC50,[5],3.7 µM (active)
same,EC50,[8],4.01 µM (inconclusive)
CCCCCc1nc2sc3c(c2c(=O)n1N)CCC3,EC50,[4],> 112 µM (not active)
same,EC50,[5],> 112 µM (not active)
CCOc1ccc(S(=O)(=O)NCCC(=O)N2CCCN(C)CC2)cc1,EC50,[4],> 112 µM (not active)
same,EC50,[5],> 112 µM (not active)
CN(C)c1ccc(NC(=O)c2cccc(N3C(=O)C4C5C=CC(C5)C4C3=O)c2)cc1 (centres undefined),IC50,[9],1.89 µM (not active)
same,IC50,[10],49.2 µM (active)
same,AC50,[11],25.1 µM (inconclusive)
CC(=O)Nc1ccc(C(=O)N(C)c2ccccc2)cc1,EC50,[4],> 112 µM (not active)
same,EC50,[5],> 112 µM (not active)
Cc1ccc(OCc2nnc(SCC(=O)c3cccc([N+](=O)[O-])c3)n2C)cc1,IC50,[1],4.87 µM (not active)
O=c1cc(COc2ncnc3c(Cl)cc(Cl)cc23)nc2sccn12,IC50,[12],> 79 µM (inactive)
same,EC50,[4],> 112 µM (not active)
same,EC50,[5],> 112 µM (not active)
CC(=O)c1c(S)nc(-c2ccccc2)nc1N1CCCC1,IC50,[1],> 50 µM (not active)
COc1ccc(-n2ncc(S(=O)(=O)c3ccccc3)c2-c2ccc(Cl)cc2)cc1,IC50,[1],3.23 µM (not active)
CCOC(=O)N1CCN(C(=O)CCCN2C(=O)CSc3nc(C)cc(C)c32)CC1,EC50,[4],> 112 µM (not active)
same,EC50,[5],> 112 µM (not active)
CCOc1cccc2cc(C(=O)NCc3cccnc3)c(=O)oc12,EC50,[4],> 112 µM (not active)
same,EC50,[5],> 112 µM (not active)
O=C(c1ccccc1)c1ccc2nc(-c3ccco3)c(-c3ccco3)nc2c1,IC50,[9],6.46 µM (active)
same,EC50,[13],32.3 µM (active)
Cc1ccc(NC(=O)C[S+]([O-])CC(=O)NCCCc2ccccc2)cc1Cl (centres undefined),IC50,[2],> 20 µM (inactive)
COc1cc(NS(=O)(=O)c2ccc(NC(=S)NC(=O)c3sc4cc(F)ccc4c3Cl)cc2)nc(OC)n1,IC50,[9],4.37 µM (not active)
same,IC50,[14],> 66 µM (inactive)
same,IC50,[15],> 66 µM (inactive)
NS(=O)(=O)c1ccc(CCNC(=O)c2cc(-c3ccco3)nc3ccccc23)cc1,IC50,[2],> 20 µM (inactive)
Cc1csc(NC(=O)c2ccco2)n1,EC50,[4],> 112 µM (not active)
same,EC50,[5],20.1 µM (active)
CC(C)C[C@@H]1CN=C(N)N1C[C@@H]1CCCN1C[C@H](C)N1C[C@@H](Cc2ccccc2)N(CCCC2CCCC2)C1=N,IC50,[2],> 20 µM (inactive)
CC[C@@H](C)[C@@H]1CN([C@@H](CN2CCC[C@H]2CN2C(N)=NC[C@H]2CC(C)C)C(C)C)C(=N)N1CCCC1CCCC1,IC50,[2],> 20 µM (inactive)
CC(O)CCC(=O)c1ccoc1 (centres undefined),GI50,[16],3660 µM (inactive)
same,GI50,[17],4940 µM (inactive)
same,GI50,[18],7230 µM (inactive)
COc1ccc(/C=N/Nc2nccnc2Cl)c(OC)c1,EC50,[4],6.55 µM (active)
same,EC50,[5],2.65 µM (active)
Cc1nc(=O)n2c(c1C(=O)Nc1ccc(Cl)cc1)NCC2,GI50,[17],> 31.6 µM (inactive)
CC1NC(=O)C(C)C(c2ccccc2)N(N=O)C1c1ccccc1 (centres undefined),GI50,[16],0.933 µM (active)
same,GI50,[17],21 µM (inactive)
same,GI50,[18],> 100 µM (inactive)
ClCc1ccc2ccc3ccc(CCl)nc3c2n1,GI50,[16],0.883 µM (active)
same,GI50,[17],1.51 µM (inactive)
same,GI50,[18],1.87 µM (inactive)
C=C1C(=O)OC2CC1CCC1(C)OC1CCC(C)=CCCC2(C)O (centres undefined),GI50,[16],0.463 µM (active)
same,GI50,[17],1.08 µM (active)
same,GI50,[18],4.35 µM (inactive)
C/C(=N\NC(=O)c1cccc(N/N=C(\C)c2cc(O)ccc2O)c1)c1cc(O)ccc1O,EC50,[19],10.8 µM (active)
same,EC50,[20],> 38 µM (not active)
same,IC50,[9],3.43 µM (active)
same,EC50,[13],> 260 µM (inactive)
same,IC50,[10],67.8 µM (active)
CC1=C2C3OC(=O)C(C)C3CCC2(C)C=C/C1=N\c1ccccc1 (centres undefined),GI50,[16],> 100 µM (inactive)
same,GI50,[17],> 100 µM (inactive)
same,GI50,[18],> 100 µM (inactive)
Cc1cc(C(=O)NCCN(C)C)c2nc3ccccc3cc2c1,GI50,[16],0.341 µM (active)
same,GI50,[17],0.0418 µM (active)
same,GI50,[18],0.519 µM (active)
Cc1[nH]n(-c2ccc(C(=O)O)cc2)c(=O)c1CCO,IC50,[1],> 50 µM (not active)
O=[N+]([O-])c1cccc(-c2nc3ccccc3s/c2=N/O)c1,IC50,[1],22 µM (not active)
O=C1C=CC(=O)c2c(Cl)ccc(O)c21,GI50,[16],0.344 µM (active)
same,GI50,[17],0.499 µM (active)
same,GI50,[18],25.6 µM (inactive)
COc1ccc2cc1Oc1ccc(cc1)C[C@H]1c3cc(c(OC)cc3CCN1C)Oc1c(OC)c(OC)cc3c1[C@H](C2)N(C)CC3 [FANCHININ],GI50,[16],3.05 µM (inactive)
same,GI50,[17],1.77 µM (inactive)
same,GI50,[18],7.06 µM (inactive)
